Assay results taken from patent publication US9539260B2, “Dihydro-benzo-oxazine and dihydro-pyrido-oxazine derivatives” (Novartis AG, priority 2012, dated 2017).

How the values were obtained:
[1] = target: PI3K alpha (Homo sapiens (Human), UniProt P42336); assay: Enzymatic PI3K alpha isoform inhibition (lipid kinase activity, Kinase-Glo luminescence); format: biochemical; details: Enzymatic assay
Protocol: (§1) 1.1 Test of Lipid Kinase Activity […]
(§2) In a more preferred assay, the kinase reaction is performed in a final volume of 10 μl per well of a low volume non-binding CORNING, 384 well black plate (Cat. No. #3676). The final concentrations of ATP and phosphatidyl inositol (PI) in the assay are 1 μM and 10 μg/mL, respectively. The reaction is started by the addition of ATP.
(§3) The components of the assay are added per well as follows:
(§4) The Z′ value is a universal measurement of the robustness of an assay. A Z′ between 0.5 and 1.0 is considered an excellent assay.
(§5) IC50 is determined by a four parameter curve fitting routine that comes along with “excel fit”. A four parameter logistic equation is used to calculate IC50 values (IDBS XLfit) of the percentage inhibition of each compound at 8 concentrations (usually 10, 3.0, 1.0, 0.3, 0.1, 0.030, 0.010 and 0.003 μM). Alternatively, IC50 values are calculated using idbsXLfit model 204, which is a 4 parameter logistic model.
(§6) Yet alternatively, for an ATP depletion assay, compounds of the formula I to be tested are dissolved in DMSO and directly distributed into a white 384-well plate at 0.5 μl per well. To start the reaction, 10 μl of 10 nM PI3 kinase and 5 μg/mL 1-alpha-phosphatidylinositol (PI) are added into each well followed by 10 μl of 2 μM ATP. The reaction is performed until approx 50% of the ATP is depleted, and then stopped by the addition of 20 μl of Kinase-Glo solution (Promega Corp., Madison, Wis., USA). The stopped reaction is incubated for 5 minutes and the remaining ATP is then detected via luminescence. IC50 values are then determined.

[2] = target: PI3K delta (Homo sapiens (Human), UniProt O00329); assay: Enzymatic PI3K delta isoform inhibition (lipid kinase activity, Kinase-Glo luminescence); format: biochemical; details: Enzymatic assay
Sequence of PI3K delta (O00329 other isoform, or with tags, fused parts or gaps linker GGGGGG): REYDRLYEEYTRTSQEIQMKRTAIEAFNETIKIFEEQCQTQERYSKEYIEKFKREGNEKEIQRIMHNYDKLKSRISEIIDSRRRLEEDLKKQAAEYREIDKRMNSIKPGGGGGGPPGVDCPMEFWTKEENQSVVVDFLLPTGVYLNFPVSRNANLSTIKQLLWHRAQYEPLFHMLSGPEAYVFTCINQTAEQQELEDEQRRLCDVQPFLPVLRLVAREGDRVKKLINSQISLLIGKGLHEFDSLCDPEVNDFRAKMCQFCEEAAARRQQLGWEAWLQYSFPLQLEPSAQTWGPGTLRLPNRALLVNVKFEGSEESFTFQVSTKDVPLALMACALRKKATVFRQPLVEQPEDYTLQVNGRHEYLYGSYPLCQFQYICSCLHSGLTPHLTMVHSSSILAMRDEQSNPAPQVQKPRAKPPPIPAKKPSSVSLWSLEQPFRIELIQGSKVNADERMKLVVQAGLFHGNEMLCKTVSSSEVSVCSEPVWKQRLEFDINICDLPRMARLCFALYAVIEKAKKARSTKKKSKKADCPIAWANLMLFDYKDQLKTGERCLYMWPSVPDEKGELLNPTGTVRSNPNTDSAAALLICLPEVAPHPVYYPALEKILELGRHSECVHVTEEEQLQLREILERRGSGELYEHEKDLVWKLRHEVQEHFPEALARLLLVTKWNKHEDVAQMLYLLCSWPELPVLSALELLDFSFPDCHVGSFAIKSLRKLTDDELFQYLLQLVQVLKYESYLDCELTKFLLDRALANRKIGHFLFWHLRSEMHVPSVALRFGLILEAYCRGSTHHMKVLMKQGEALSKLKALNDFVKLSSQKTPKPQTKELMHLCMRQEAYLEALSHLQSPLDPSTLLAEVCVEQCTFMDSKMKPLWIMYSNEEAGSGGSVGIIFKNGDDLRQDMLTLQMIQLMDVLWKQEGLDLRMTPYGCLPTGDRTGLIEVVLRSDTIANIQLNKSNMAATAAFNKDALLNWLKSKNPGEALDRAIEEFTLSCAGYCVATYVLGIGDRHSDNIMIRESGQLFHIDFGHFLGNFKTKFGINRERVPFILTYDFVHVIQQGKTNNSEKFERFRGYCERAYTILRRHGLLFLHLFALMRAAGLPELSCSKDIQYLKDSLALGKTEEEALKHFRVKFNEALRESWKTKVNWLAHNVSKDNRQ
Protocol: as §1, §2, §3, §4, §5, §6

Sequence of PI3K alpha (P42336 other isoform, or with tags, fused parts or gaps): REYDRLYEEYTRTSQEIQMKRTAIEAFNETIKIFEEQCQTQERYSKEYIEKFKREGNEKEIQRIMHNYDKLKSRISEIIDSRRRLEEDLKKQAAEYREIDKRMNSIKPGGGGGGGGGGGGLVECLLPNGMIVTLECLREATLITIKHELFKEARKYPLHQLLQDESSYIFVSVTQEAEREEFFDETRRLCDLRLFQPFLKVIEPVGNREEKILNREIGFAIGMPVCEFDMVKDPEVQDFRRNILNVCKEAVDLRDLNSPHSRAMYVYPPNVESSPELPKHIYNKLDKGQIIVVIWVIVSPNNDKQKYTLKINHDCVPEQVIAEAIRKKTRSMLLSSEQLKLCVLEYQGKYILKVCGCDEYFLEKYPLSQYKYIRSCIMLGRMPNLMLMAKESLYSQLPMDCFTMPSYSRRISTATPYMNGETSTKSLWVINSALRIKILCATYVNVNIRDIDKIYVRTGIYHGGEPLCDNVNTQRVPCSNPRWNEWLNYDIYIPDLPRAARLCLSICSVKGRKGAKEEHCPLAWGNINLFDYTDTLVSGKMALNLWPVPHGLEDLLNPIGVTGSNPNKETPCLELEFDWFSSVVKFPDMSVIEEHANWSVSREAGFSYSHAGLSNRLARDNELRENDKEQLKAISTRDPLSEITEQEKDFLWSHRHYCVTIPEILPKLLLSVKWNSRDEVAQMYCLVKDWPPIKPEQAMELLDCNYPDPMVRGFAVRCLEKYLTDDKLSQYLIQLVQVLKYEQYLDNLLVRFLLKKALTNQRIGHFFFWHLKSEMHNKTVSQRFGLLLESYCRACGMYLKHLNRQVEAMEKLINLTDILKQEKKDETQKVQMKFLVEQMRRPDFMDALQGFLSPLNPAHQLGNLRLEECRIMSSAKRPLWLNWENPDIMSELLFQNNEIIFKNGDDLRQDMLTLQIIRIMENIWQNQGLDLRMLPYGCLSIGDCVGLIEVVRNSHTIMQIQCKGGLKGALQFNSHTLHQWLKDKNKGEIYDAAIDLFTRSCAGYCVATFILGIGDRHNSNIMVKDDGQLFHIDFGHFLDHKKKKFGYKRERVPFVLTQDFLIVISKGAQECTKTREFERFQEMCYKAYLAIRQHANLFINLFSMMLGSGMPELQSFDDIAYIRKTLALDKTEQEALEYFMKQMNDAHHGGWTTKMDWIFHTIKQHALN

Row | Compound | IC50 [1] | IC50 [2]
1 | N#Cc1cncc(N2CCOc3ccc(O[C@H]4CCN(C(=O)C5CCOCC5)C4)cc32)c1 [Example A7, 5-{6-[(S)-1-(Tetrahydro-pyran-4-carbonyl)-pyrrolidin-3-yloxy]-2,3-dihydro-benzo[1,4]oxazin-4-yl}-nicotinonitrile] | 1920 nM | 31 nM
2 | CCC(=O)N1CC[C@H](Oc2ccc3c(c2)N(c2ccc(S(C)(=O)=O)nc2)CCO3)C1 [Example A8, 1-{(S)-3-[4-(6-Methanesulfonyl-pyridin-3-yl)-3,4-dihydro-2H-benzo[1,4]oxazin-6-yloxy]-pyrrolidin-1-yl}-propan-1-one] | 5930 nM | 40 nM
3 | CCC(=O)N1CC[C@H](Oc2ccc3c(c2)N(c2cnc(OC)c(F)c2)CCO3)C1 [Example A11, 1-{(S)-3-[4-(5-Fluoro-6-methoxy-pyridin-3-yl)-3,4-dihydro-2H-benzo[1,4]oxazin-6-yloxy]-pyrrolidin-1-yl}-propan-1-one] | 2280 nM | 69 nM
4 | CCC(=O)N1CC[C@H](Oc2ccc3c(c2)N(c2cnc(N)c(OC)c2)CCO3)C1 [Example A14, 1-{(S)-3-[4-(6-Amino-5-methoxy-pyridin-3-yl)-3,4-dihydro-2H-benzo[1,4]oxazin-6-yloxy]-pyrrolidin-1-yl}-propan-1-one] | > 9100 nM | 5400 nM
5 | CCC(=O)N1CC[C@H](Oc2ccc3c(c2)N(c2ccc(OC)c(S(=O)(=O)N(C)C)c2)CCO3)C1 [Example A15, 2-Methoxy-N,N-dimethyl-5-[6-((S)-1-propionyl-pyrrolidin-3-yloxy)-2,3-dihydro-benzo[1,4]oxazin-4-yl]-benzenesulfonamide] | 4890 nM | 184 nM
6 | CCC(=O)N1CC[C@H](Oc2ccc3c(c2)N(c2ccc(OC)c(S(C)(=O)=O)c2)CCO3)C1 [Example A16, 1-{(S)-3-[4-(3-Methanesulfonyl-4-methoxy-phenyl)-3,4-dihydro-2H-benzo[1,4]oxazin-6-yloxy]-pyrrolidin-1-yl}-propan-1-one] | > 9100 nM | 323 nM
7 | CCC(=O)N1CC[C@H](Oc2ccc3c(c2)N(c2cnc(OC)c(S(=O)(=O)N4CCN(C)CC4)c2)CCO3)C1 [Example A18, 1-((S)-3-{4-[6-Methoxy-5-(4-methyl-piperazine-1-sulfonyl)-pyridin-3-yl]-3,4-dihydro-2H-benzo[1,4]oxazin-6-yloxy}-pyrrolidin-1-yl)-propan-1-one] | 895 nM | 11 nM
8 | Cc1cc(N2CCOc3ccc(O[C@H]4CCN(C(=O)C5CCOCC5)C4)cc32)ccn1 [Example A19, {(S)-3-[4-(2-Methyl-pyridin-4-yl)-3,4-dihydro-2H-benzo[1,4]oxazin-6-yloxy]-pyrrolidin-1-yl}-(tetrahydro-pyran-4-yl)-methanone] | 7550 nM | 380 nM
9 | COc1cc(N2CCOc3ccc(O[C@H]4CCN(C(=O)C5CCOCC5)C4)cc32)ccn1 [Example A22, {(S)-3-[4-(2-Methoxy-pyridin-4-yl)-3,4-dihydro-2H-benzo[1,4]oxazin-6-yloxy]-pyrrolidin-1-yl}-(tetrahydro-pyran-4-yl)-methanone] | 757 nM | 21 nM
10 | Nc1ncc(N2CCOc3ccc(O[C@H]4CCN(C(=O)C5CCOCC5)C4)cc32)cc1C(F)(F)F [Example A23, {(S)-3-[4-(6-Amino-5-trifluoromethyl-pyridin-3-yl)-3,4-dihydro-2H-benzo[1,4]oxazin-6-yloxy]-pyrrolidin-1-yl}-(tetrahydro-pyran-4-yl)-methanone] | 1570 nM | 170 nM
11 | CCC(=O)N1CC[C@H](Oc2ccc3c(c2)N(c2ccc(C)c(S(=O)(=O)N4CCCCC4)c2)CCO3)C1 [Example A24, 1-((S)-3-{4-[4-Methyl-3-(piperidine-1-sulfonyl)-phenyl]-3,4-dihydro-2H-benzo[1,4]oxazin-6-yloxy}-pyrrolidin-1-yl)-propan-1-one] | 6880 nM | 317 nM
12 | CCC(=O)N1CC[C@H](Oc2ccc3c(c2)N(c2cncc(S(=O)(=O)N4CCN(C)CC4)c2)CCO3)C1 [Example A28, 1-((S)-3-{4-[5-(4-Methyl-piperazine-1-sulfonyl)-pyridin-3-yl]-3,4-dihydro-2H-benzo[1,4]oxazin-6-yloxy}-pyrrolidin-1-yl)-propan-1-one] | 531 nM | 16 nM
13 | CCC(=O)N1CC[C@H](Oc2ccc3c(c2)N(c2ccc(OC)c(S(=O)(=O)N(C)OC)c2)CCO3)C1 [Example A29, 2,N-Dimethoxy-N-methyl-5-[6-((S)-1-propionyl-pyrrolidin-3-yloxy)-2,3-dihydro-benzo[1,4]oxazin-4-yl]-benzenesulfonamide] | 2730 nM | 42 nM
14 | CCC(=O)N1CC[C@H](Oc2ccc3c(c2)N(c2ccc(OC)c(S(=O)(=O)NOC)c2)CCO3)C1 [Example A31, 2,N-Dimethoxy-5-[6-((S)-1-propionyl-pyrrolidin-3-yloxy)-2,3-dihydro-benzo[1,4]oxazin-4-yl]-benzenesulfonamide] | 6020 nM | 88 nM
15 | CCC(=O)N1CC[C@H](Oc2ccc3c(c2)N(c2cncc(C#N)c2)CCO3)C1 [Example A32, 5-[6-((S)-1-Propionyl-pyrrolidin-3-yloxy)-2,3-dihydro-benzo[1,4]oxazin-4-yl]-nicotinonitrile] | 3200 nM | 74 nM
16 | COc1cncc(N2CCOc3ccc(O[C@H]4CCN(C(=O)C5CCOCC5)C4)cc32)c1 [Example A33, {(S)-3-[4-(5-Methoxy-pyridin-3-yl)-3,4-dihydro-2H-benzo[1,4]oxazin-6-yloxy]-pyrrolidin-1-yl}-(tetrahydro-pyran-4-yl)-methanone] | 1700 nM | 85 nM
17 | O=C(C1CCOCC1)N1CC[C@H](Oc2ccc3c(c2)N(c2cncc(Cl)c2)CCO3)C1 [Example A34, {(S)-3-[4-(5-Chloro-pyridin-3-yl)-3,4-dihydro-2H-benzo[1,4]oxazin-6-yloxy]-pyrrolidin-1-yl}-(tetrahydro-pyran-4-yl)-methanone] | 773 nM | 9 nM
18 | CCC(=O)N1CC[C@H](Oc2ccc3c(c2)N(c2ccc(OC)c(OC)c2)CCO3)C1 [Example A35, 1-{(S)-3-[4-(3,4-Dimethoxy-phenyl)-3,4-dihydro-2H-benzo[1,4]oxazin-6-yloxy]-pyrrolidin-1-yl}-propan-1-one] | 5590 nM | 1420 nM

These reach a lower IC50 [1]. Values come first.

Row | IC50 [1] | IC50 [2] | Compound
19 | 410 nM | 14 nM | CCC(=O)N1CC[C@H](Oc2ccc3c(c2)N(c2cnc(OC)c(C#N)c2)CCO3)C1 [Example A9, 2-Methoxy-5-[6-((S)-1-propionyl-pyrrolidin-3-yloxy)-2,3-dihydro-benzo[1,4]oxazin-4-yl]-nicotinonitrile]
20 | 292 nM | 5 nM | CCC(=O)N1CC[C@H](Oc2ccc3c(c2)N(c2cnc(OC)c(C)c2)CCO3)C1 [Example A13, 1-{(S)-3-[4-(6-Methoxy-5-methyl-pyridin-3-yl)-3,4-dihydro-2H-benzo[1,4]oxazin-6-yloxy]-pyrrolidin-1-yl}-propan-1-one]
21 | 260 nM | 31 nM | CCC(=O)N1CC[C@H](Oc2ccc3c(c2)N(c2cncc(S(=O)(=O)N(C)OC)c2)CCO3)C1 [Example A30, 5-[6-((S)-1-Propionyl-pyrrolidin-3-yloxy)-2,3-dihydro-benzo[1,4]oxazin-4-yl]-pyridine-3-sulfonic acid methoxy-methyl-amide]
22 | 220 nM | 18 nM | CCC(=O)N1CC[C@H](Oc2ccc3c(c2)N(c2cnc(OC)c(C(F)(F)F)c2)CCO3)C1 [Example A10, 1-{(S)-3-[4-(6-Methoxy-5-trifluoromethyl-pyridin-3-yl)-3,4-dihydro-2H-benzo[1,4]oxazin-6-yloxy]-pyrrolidin-1-yl}-propan-1-one]
23 | 182 nM | 3 nM | CCC(=O)N1CC[C@H](Oc2ccc3c(c2)N(c2cnc(OC)c(Cl)c2)CCO3)C1 [Example A12, 1-{(S)-3-[4-(5-Chloro-6-methoxy-pyridin-3-yl)-3,4-dihydro-2H-benzo[1,4]oxazin-6-yloxy]-pyrrolidin-1-yl}-propan-1-one]
24 | 152 nM | 22 nM | CCC(=O)N1CC[C@H](Oc2ccc3c(c2)N(c2cncc(S(=O)(=O)N4CCOCC4)c2)CCO3)C1 [Example A26, 1-((S)-3-{4-[5-(Morpholine-4-sulfonyl)-pyridin-3-yl]-3,4-dihydro-2H-benzo[1,4]oxazin-6-yloxy}-pyrrolidin-1-yl)-propan-1-one]
25 | 104 nM | 14 nM | CCC(=O)N1CC[C@H](Oc2ccc3c(c2)N(c2cnc(N)c(C(F)(F)F)c2)CCO3)C1 [Example A17, 1-{(S)-3-[4-(6-Amino-5-trifluoromethyl-pyridin-3-yl)-3,4-dihydro-2H-benzo[1,4]oxazin-6-yloxy]-pyrrolidin-1-yl}-propan-1-one]
26 | 47 nM | 6 nM | CN(C)S(=O)(=O)c1cncc(N2CCOc3ccc(O[C@H]4CCN(C(=O)C5CCOCC5)C4)cc32)c1 [Example A2, 5-{6-[(S)-1-(Tetrahydro-pyran-4-carbonyl)-pyrrolidin-3-yloxy]-2,3-dihydro-benzo[1,4]oxazin-4-yl}-pyridine-3-sulfonic acid dimethylamide]
